As usually defined, the IC50 is the concentration needed to halve the response being measured.

Each structure is given as a SMILES string. Counter-ions that a name gives are not always drawn.

Consider 32 molecules from patent US11406622B2, “Glaucocalyxin a derivative, pharmaceutically acceptable salt thereof, or pharmaceutical composition thereof and uses thereof in preparation of drugs for treating psoriasis” (SUZHOU PHARMAVAN CO., LTD., priority 2017, dated 2022).

The first series has as its system mouse spleen lymphocytes. Put plainly: ConA-induced proliferation of mouse spleen lymphocytes, MTT (Example 8). The class given is cell-based. The settings on record: Table 4, 0.001 μg/mL, 48 h, 5 μg/mL ConA. The protocol: In this example, the glaucocalyxin A derivatives and pharmaceutically acceptable salts thereof were detected for the effect thereof on ConA-induced proliferation of mouse spleen lymphocytes.
2×10^7/mL cell suspension was prepared and a 5 μg/μL ConA stock solution was added thereto at a final concentration of 5 μg/mL. The resulting mixture was inoculated into a 96-well culture plate at 0.1 mL per well. Then 0.1 mL of test compound at different concentrations was added to each well. Triplicate or quadruplicate wells were set up for each group, and a vehicle control group (without compound), a stimulant control group (with ConA, without compound, and without vehicle), a cell control group (without ConA, without compound, and without vehicle), and a blank medium control group (without cells, a well for null adjustment) were also set up, and cultured at 37° C., 5% CO2 for 48 h. MTT solution at 5 mg/mL was added at 20 μl per well, and cultured for an additional 4 hours. The culture plate was taken out and centrifuged at 1000 rpm for 10 min. The supernatant of each well was aspirated, and 100 μL of SDS cell lysis solution was added to each well, and cultured overnight. On the next day, the absorbance at 550 nm (OD550nm) was measured on an enzyme-linked immunoassay analyzer. The results were expressed as the mean OD550nm value of the triplicates or quadruplicates±standard deviation (x±sd). SPSS software version 17.0 was used for statistical analysis of the mean values, that is, the vehicle group was compared with the stimulant group, and the test group of each compound concentration was compared with the corresponding vehicle control group. The cell survival rate of each group was calculated according to the mean value for the compound treatment group and the mean value for the vehicle control group, that is, the cell survival rate (%)=the mean value for the compound treatment group/the mean value for the vehicle control group×100%. A linear regression equation was obtained by plotting the cell survival rate of each group against the concentration of the test compound, statistical test of the correlation coefficient was conducted, and then the IC50 value was determined.
With `CC(C)[C@]12O[C@H]1[C@@H]1O[C@]13[C@]1(O[C@H]1C[C@H]1C4=C(CC[C@@]13C)C(=O)OC4)[C@@H]2O` [triptolide, reference compound], the “OD550nm value (x ± sd)” value stood at 1.03 and the “Survival rate (%)” value was 98%.

The series is the same for the next values; noted with them: Table 4, 0.1 μg/mL, 48 h, 5 μg/mL ConA.
For `CC(C)[C@]12O[C@H]1[C@@H]1O[C@]13[C@]1(O[C@H]1C[C@H]1C4=C(CC[C@@]13C)C(=O)OC4)[C@@H]2O` [triptolide, reference compound], the “OD550nm value (x ± sd)” value stood at 0.42 and the “Survival rate (%)” value was determined as 40%.

Still in this series, the particulars now being: range of concentrations tested, 48 h, 5 μg/mL ConA.
For `CC(C)[C@]12O[C@H]1[C@@H]1O[C@]13[C@]1(O[C@H]1C[C@H]1C4=C(CC[C@@]13C)C(=O)OC4)[C@@H]2O` [triptolide, reference compound], the “effect on ConA-induced proliferation of mouse spleen lymphocytes (in words)” value is given as “varying degrees of inhibition”.

The test system of the next series is BALB/c mice. Description: Acute toxicity in BALB/c mice, single tail-vein injection (Example 9). The class given is in vivo, mouse. As to conditions: single intravenous injection, 10 mg/kg. An excerpt: In this example, Compound 23 and Compound 24 were detected for their acute toxicities, and the detection method was as follows.
Experimental procedure: 40 BALB/c mice, half male and half female, were randomly divided into groups after weight measurement. The weight of an individual should be within the range of the average body weight±20%. Animals should be allowed to acclimatize to the environment for at least 5 days before the test, and healthy (if female, it must be un-pregnant) mice were selected as test animals. The main inspections during the acclimatization period included: whether it met the quality indicators required at the time of ordering; general state check; and whether the weight reached the weight range required by the test. Unqualified abnormal animals were not included in this test. A single tail-vein injection was administrated to the mice at a low, medium, or high dose, which was 5 mg/kg, 10 mg/kg, or 40 mg/kg respectively according to a blank preparation pre-test. An equal volume of vehicle was intravenously injected to establish a control group.
Mice were observed once respectively at 0 to 2 hours and 4 to 6 hours after each administration. If toxic symptoms occurred, the number of observations could be increased. (2) Gross anatomy observation: All the surviving mice in each group were dissected and observed on the 8th day of the experiment. The abnormal organs and tissues found in the observation of administration sites and in the gross anatomy observation that might be related to the test samples were photographed and recorded. (3) Disposal of dying animals: The state of the mouse and the observation time were recorded, and the body weight was measured. (4) Disposal of dead animals: The time of death or the time when the death was found was recorded, the body weight was measured, and then the dissection was quickly performed for gross observation to speculate the cause of death.
`Br.C=C1C(=O)C23C(O)CC4C(C)(C)c5nc(NC)sc5CC4(C)C2CCC1C3O` (stereo not shown) [Compound 24]: the animals that died entry is listed as “All animals”.

The test system of another series is human keratinocytes (HaCaT). Description: Effect on proliferation of human keratinocytes, CCK-8, 48 h (Example 5). The settings on record: 48 hours of treatment. The class given is cell-based. On the procedure:
In this example, the glaucocalyxin A derivatives of the present application, or pharmaceutically acceptable salts thereof, were examined for the effect on the proliferation of human keratinocytes. In this example, the glaucocalyxin A derivatives as shown in Table 1 were examined by using the following procedure. A cell suspension was prepared and inoculated into three 96-well plates at 8000 cells in a volume of 150 μl per well, which were then cultured overnight in an incubator at 37° C., 5% CO2. On the next day, 50 μl of test compound solution at different concentrations was added to each well. Triplicate wells were set up for each concentration. A vehicle control group (without compound), a cell control group (without compound and vehicle), and a blank medium control group (without cells, a well for null adjustment) were also set up, and cultured for an additional 48 hours. CCK-8 staining working solution was added at 110 μL per well, and cultured for additional 1-4 h. At the end of the culture, the absorbances were measured at 450 nm (OD450 nm) on a Bio-Tek enzyme-linked immunosorbent assay. The results were expressed as the mean OD450 nm value of triplicates±standard deviation (x±sd). The Origin 7.0 was used for plotting and analysis. A fitting curve was obtained by plotting the OD value of each group against the logarithmic concentration of the test compound, and then the IC50 value was determined.
For the molecule `C=C1C(=O)C23C(O)CC4C(C)(C)c5nc(N)sc5CC4(C)C2CCC1C3O` (stereo not shown) [Compound 01], inhibition was half-maximal at 3.21 µM (IC50). This lies in the single-digit micromolar range.
Take `C=C1C(=O)C23C(O)CC4C(C)(C)c5nc(N)sc5CC4(C)C2CCC1C3O` (stereo not shown) [Compound 02]: the IC50 was found to be 3.52 µM.
Still for that read-out and setting: the result for `C=C1C(=O)C23C(O)CC4C(C)(C)c5nc(N)sc5CC4(C)C2CCC1C3O` (stereo not shown) [Compound 03] reads 4.02 µM.
Same read-out and setting: the result for `C=C1C(=O)C23C(O)CC4C(C)(C)c5nc(N)sc5CC4(C)C2CCC1C3O` (stereo not shown) [Compound 04] reads 4.1 µM.
The same measure, in the same setting: under `C=C1C(=O)C23C(O)CC4C(C)(C)c5nc(N)sc5CC4(C)C2CCC1C3O` (stereo not shown) [Compound 05] stands 3.45 µM.
`C=C1C(=O)C23C(O)CC4C(C)(C)c5nc(N)sc5CC4(C)C2CCC1C3O` (stereo not shown) [Compound 06] gave an IC50 of 2.91 µM. This IC50 and that of the molecule before are within 1.5-fold of each other.
On to `C=C1C(=O)C23C(O)CC4C(C)(C)c5nc(N)sc5CC4(C)C2CCC1C3O` (stereo not shown) [Compound 07], for which the IC50 was 3.28 µM.
The same measure, in the same setting: the result for `C=C1C(=O)C23C(O)CC4C(C)(C)c5nc(N)sc5CC4(C)C2CCC1C3O` (stereo not shown) [Compound 08] reads 2.85 µM.
The same measure, in the same setting: the result for `C=C1C(=O)C23C(O)CC4C(C)(C)c5nc(N)sc5CC4(C)C2CCC1C3O` (stereo not shown) [Compound 09] reads 2.42 µM; that for `C=C1C(=O)C23C(O)CC4C(C)(C)c5nc(N)sc5CC4(C)C2CCC1C3O` (stereo not shown) [Compound 10], 3.86 µM; that for `C=C1C(=O)C23C(O)CC4C(C)(C)c5nc(N)sc5CC4(C)C2CCC1C3O` (stereo not shown) [Compound 11], 3 µM.
Same read-out and setting: the result for `C=C1C(=O)C23C(O)CC4C(C)(C)c5nc(NN)sc5CC4(C)C2CCC1C3O` (stereo not shown) [Compound 12] reads 1.21 µM; that for `C=C1C(=O)C23C(O)CC4C(C)(C)c5nc(Nc6ccncc6)sc5CC4(C)C2CCC1C3O` (stereo not shown) [Compound 13], 3.62 µM; that for `C=C1C(=O)C23C(O)CC4C(C)(C)c5nc(NCCC)sc5CC4(C)C2CCC1C3O` (stereo not shown) [Compound 14], 7 µM.
For `C=C1C(=O)C23C(O)CC4C(C)(C)c5nc(NC(C)C)sc5CC4(C)C2CCC1C3O` (stereo not shown) [Compound 15], half-maximal inhibition (IC50) required 6.95 µM.
As for `C=C1C(=O)C23C(O)CC4C(C)(C)c5nc(NCCCC)sc5CC4(C)C2CCC1C3O` (stereo not shown) [Compound 16], the IC50 was found to be 8.88 µM.
On to `C=C1C(=O)C23C(O)CC4C(C)(C)c5nc(NCCCCCC)sc5CC4(C)C2CCC1C3O` (stereo not shown) [Compound 17], for which the IC50 amounted to 4.29 µM.
Molecule `C=CCNc1nc2c(s1)CC1(C)C(CC(O)C34C(=O)C(=C)C(CCC13)C4O)C2(C)C` (stereo not shown) [Compound 18] returned an IC50 of 7.24 µM.
Same read-out and setting: the result for `C=C1C(=O)C23C(O)CC4C(C)(C)c5nc(NC6CCCCC6)sc5CC4(C)C2CCC1C3O` (stereo not shown) [Compound 19] reads 8.16 µM.
On the same count and under the same terms, the result for `C=C1C(=O)C23C(O)CC4C(C)(C)c5nc(Nc6ccccc6)sc5CC4(C)C2CCC1C3O` (stereo not shown) [Compound 20] reads 9.31 µM; that for `C=C1C(=O)C23C(O)CC4C(C)(C)c5nc(NCc6ccccc6)sc5CC4(C)C2CCC1C3O` (stereo not shown) [Compound 21], 9.2 µM; that for `C=C1C(=O)C23C(O)CC4C(C)(C)c5nc(N(C)C)sc5CC4(C)C2CCC1C3O` (stereo not shown) [Compound 22], 0.95 µM.
On the same count and under the same terms, the result for `Br.C=C1C(=O)C23C(O)CC4C(C)(C)c5nc(NC)sc5CC4(C)C2CCC1C3O` (stereo not shown) [Compound 24] reads 3.17 µM.
Molecule `C=C1C(=O)C23C(O)CC4C(C)(C)c5nc(NCC)sc5CC4(C)C2CCC1C3O` (stereo not shown) [Compound 25] returned an IC50 of 5.49 µM. This IC50 is about 1.7-fold higher than that of the molecule before.
The same measure, in the same setting: the result for `C=C1C(=O)C23C(O)CC4C(C)(C)c5nc(NCCC)sc5CC4(C)C2CCC1C3O` (stereo not shown) [Compound 26] reads 7.86 µM.
Same read-out and setting: the result for `C=C1C(=O)C23C(O)CC4C(C)(C)c5nc(NC(C)C)sc5CC4(C)C2CCC1C3O` (stereo not shown) [Compound 27] reads 6.92 µM; that for `C=C1C(=O)C23C(O)CC4C(C)(C)c5nc(N(CC)CC)sc5CC4(C)C2CCC1C3O` (stereo not shown) [Compound 28], 1.26 µM.
Same read-out and setting: under `C=C1C(=O)C23C(O)CC4C(C)(C)c5nc(N(CCC)CCC)sc5CC4(C)C2CCC1C3O` (stereo not shown) [Compound 29] stands 1.85 µM; under `C=C1C(=O)C23C(O)CC4C(C)(C)c5nc(N(C(C)C)C(C)C)sc5CC4(C)C2CCC1C3O` (stereo not shown) [Compound 30], 2.37 µM.

The series is the same for the next values; noted with them: Homo sapiens, 48 hours of treatment.
The molecule `C=C1C(=O)[C@@]23[C@H](O)C[C@@H]4C(C)(C)C(=O)CC[C@@]4(C)[C@@H]2CC[C@@H]1[C@H]3O` [Compound 31, glaucocalyxin A] showed an IC50 of 30.5 µM. This lies in the double-digit micromolar range.
The same measure, in the same setting: the result for `CN(C)C[C@@H]1C(=O)C23C(O)C1CCC2[C@]1(C)CCC(=O)C(C)(C)[C@H]1C[C@H]3O` (stereo partly shown) [Compound 32, dimethylamino glaucocalyxin A hydrochloride, reference compound] reads 18.7 µM.
